Data: patent US20220062243A1, “P14-Kinase Inhibitors with Anti-Cancer Activity” (The Board of Trustees of the Leland Stanford Junior …, priority 2019, published 2022)

Molecular target: PI4K-IIIβ (Homo sapiens, UniProt Q9UBF8)
Assay: PI-kinase assay (membrane capture assay for lipid kinase activity), PI4KIIIβ
Format: biochemical
Conditions: read-out: PI4KIIIβ kinase activity (IC50 class)
Procedure: PI4-kinase inhibition can be determined by a kinase activity assay, e.g., by an assay that determines the level of incorporation of radiolabeled phosphate from [γ-^32P]-ATP into a substrate molecule after treatment with a subject compound, relative to a control, by measuring the beta-particle emission rate using a scintillation counter or phosphorimaging.
PI-kinase assay: Compounds are tested in C.1.1. PI kinase assays as described by Shokat et al., “A membrane capture assay for lipid kinase activity.” Nat. Protoc. […] Selected compounds of Table 1 and 2 were prepared and tested for inhibition activity in a variety of kinase assays.

Sequence of PI4K-IIIβ (Q9UBF8 whole entry): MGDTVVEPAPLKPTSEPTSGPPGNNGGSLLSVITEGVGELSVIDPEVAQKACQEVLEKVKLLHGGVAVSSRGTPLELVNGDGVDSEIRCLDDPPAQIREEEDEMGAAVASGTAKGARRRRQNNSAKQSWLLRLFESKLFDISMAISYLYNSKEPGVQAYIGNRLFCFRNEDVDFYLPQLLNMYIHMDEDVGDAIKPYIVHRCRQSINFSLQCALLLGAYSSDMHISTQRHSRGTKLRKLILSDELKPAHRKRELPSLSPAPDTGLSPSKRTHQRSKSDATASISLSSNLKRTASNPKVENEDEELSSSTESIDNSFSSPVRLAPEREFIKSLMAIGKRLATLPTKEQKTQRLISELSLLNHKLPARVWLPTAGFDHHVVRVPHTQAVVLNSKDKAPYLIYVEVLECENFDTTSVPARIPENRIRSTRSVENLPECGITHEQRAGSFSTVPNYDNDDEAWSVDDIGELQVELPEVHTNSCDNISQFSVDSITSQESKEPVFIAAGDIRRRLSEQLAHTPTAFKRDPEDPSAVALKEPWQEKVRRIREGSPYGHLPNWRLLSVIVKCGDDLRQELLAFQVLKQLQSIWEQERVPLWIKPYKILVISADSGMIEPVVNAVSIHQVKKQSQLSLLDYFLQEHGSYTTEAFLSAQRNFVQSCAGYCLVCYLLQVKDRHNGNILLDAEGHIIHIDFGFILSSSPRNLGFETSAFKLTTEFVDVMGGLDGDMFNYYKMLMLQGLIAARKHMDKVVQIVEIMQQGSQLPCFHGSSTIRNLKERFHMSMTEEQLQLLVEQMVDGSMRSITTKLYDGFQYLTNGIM

SMILES	IC50 [nM]
COc1ccc(-c2sc(NCC(C)C)nc2C)cc1S(=O)(=O)NC1CCCC(O)C1 (stereo not shown) [Compound S-223, N-(3-hydroxycyclohexyl)-5-[2-(isobutylamino)-4-methyl-thiazol-5-yl]-2-methoxy-benzenesulfonamide;2,2,2-trifluoroacetic acid]	< 100
COc1ccc(-c2sc(NC(=O)C3CCCC3)nc2C)cc1S(=O)(=O)N[C@H]1CC[C@H](O)CC1 [Compound S-9, N-[5-[3-[(4-hydroxycyclohexyl)sulfamoyl]-4-methoxy-phenyl]-4-methyl-thiazol-2-yl]cyclopentanecarboxamide]	< 100
COc1ccc(-c2sc(NC(C)(C)C)nc2C)cc1S(=O)(=O)NC1CCCC(O)C1 (stereo not shown) [Compound S-218, 5-[2-(tert-butylamino)-4-methyl-thiazol-5-yl]-N-(3-hydroxycyclohexyl)-2-methoxy-benzenesulfonamide]	< 100
Cc1ccc(-c2sc(NC(=O)CC3CCCC3)nc2C)cc1S(=O)(=O)NC1CCCNC1 (stereo not shown) [Compound S-189, 2-cyclopentyl-N-[4-methyl-5-[4-methyl-3-(3-piperidylsulfamoyl)phenyl]thiazol-2-yl]acetamide]	< 100
COc1ccc(-c2sc(NC(C)(C)C)nc2C)cc1S(=O)(=O)NC1CCCNC1 (stereo not shown) [Compound S-220, 5-[2-(tert-butylamino)-4-methyl-thiazol-5-yl]-2-methoxy-N-(3-piperidyl)benzenesulfonamide]	< 100
COc1ccc(-c2sc(NCC3CCCCC3)nc2C)cc1S(=O)(=O)NC1CCCC(O)C1 (stereo not shown) [Compound S-199, 5-[2-(cyclohexylmethylamino)-4-methyl-thiazol-5-yl]-N-(3-hydroxycyclohexyl)-2-methoxy-benzenesulfonamide]	< 100
COc1ccc(-c2sc(N[C@H](C)C3CCCCC3)nc2C)cc1S(=O)(=O)N[C@@H]1CCNC1 [Compound S-197, 5-[2-[[(1R)-1-cyclohexylethyl]amino]-4-methyl-thiazol-5-yl]-2-methoxy-N-[(3R)-pyrrolidin-3-yl]benzenesulfonamide]	< 100
COc1ccc(-c2sc(NCC3CCCCC3)nc2C)cc1S(=O)(=O)NC1CC1 [Compound S-127, 5-[2-(cyclohexylmethylamino)-4-methyl-thiazol-5-yl]-N-cyclopropyl-2-methoxy-benzenesulfonamide]	100 to 1000
COc1ccc(-c2sc(N[C@H](C)C3CCCCC3)nc2C)cc1S(=O)(=O)NC1CCCNC1 (stereo partly drawn) [Compound S-148, 5-[2-[[(1R)-1-cyclohexylethyl]amino]-4-methyl-thiazol-5-yl]-2-methoxy-N-(3-piperidyl)benzenesulfonamide]	< 100
COc1ccc(-c2sc(NC(=O)CC3CCCC3)nc2C)cc1S(=O)(=O)NCCCCO [Compound S-152]	< 100
COc1ncc(-c2sc(NC(=O)CC3CCOCC3)nc2C)cc1S(=O)(=O)Nc1ccc(F)cc1F [Compound S-258]	1000 to 10000
COc1ncc(-c2sc(NC(=O)CC3CCOCC3)nc2C)cc1S(=O)(=O)Nc1cccc(C(=O)O)c1 [Compound S-265]	< 100
COc1ccc(-c2sc(NC(=O)CC3CCOCC3)nc2C)cc1S(=O)(=O)Nc1cccc(C)c1 [Compound S-226, N-[5-[4-methoxy-3-(m-tolylsulfamoyl)phenyl]-4-methyl-thiazol-2-yl]-2-tetrahydropyran-4-yl-acetamide]	< 100
COc1ccc(-c2sc(NC(C)(C)C)nc2C)cc1S(=O)(=O)N[C@H]1CC[C@H](O)CC1 [Compound S-216, 5-[2-(tert-butylamino)-4-methyl-thiazol-5-yl]-N-(4-hydroxycyclohexyl)-2-methoxy-benzenesulfonamide]	< 100
COc1ncc(-c2sc(NC(=O)CC3CCOCC3)nc2C)cc1S(=O)(=O)Nc1cccc(O)c1 [Compound S-259]	< 100
COc1ccc(-c2sc(NCC(C)C)nc2C)cc1S(=O)(=O)N[C@H]1CC[C@H](O)CC1 [Compound S-221, N-(4-hydroxycyclohexyl)-5-[2-(isobutylamino)-4-methyl-thiazol-5-yl]-2-methoxy-benzenesulfonamide]	< 100
COc1ccc(-c2sc(NC3CCCCCC3)nc2C)cc1S(=O)(=O)Nc1c(C)cccc1C [Compound S-98, 5-[2-(cycloheptylamino)-4-methyl-thiazol-5-yl]-N-(2,6-dimethylphenyl)-2-methoxy-benzenesulfonamide;2,2,2-trifluoroacetic acid]	< 100
COc1ccc(-c2sc(N[C@@H](C)C3CCCCC3)nc2C)cc1S(=O)(=O)N[C@H]1CC[C@H](O)CC1 [Compound S-183, 5-[2-[[(1S)-1-cyclohexylethyl]amino]-4-methyl-thiazol-5-yl]-N-(4-hydroxycyclohexyl)-2-methoxy-benzenesulfonamide]	< 100
COc1ccc(-c2sc(NC(=O)Cc3ccccc3)nc2C)cc1S(=O)(=O)Nc1ccc(O)cc1 [Compound S-49, N-[5-[3-[(4-hydroxyphenyl)sulfamoyl]-4-methoxy-phenyl]-4-methyl-thiazol-2-yl]-2-phenyl-acetamide]	< 100
COc1ccc(-c2sc(NC3CCCCC3)nc2C)cc1S(=O)(=O)NC1CCCCCC1 [Compound S-131, N-cycloheptyl-5-[2-(cyclohexylamino)-4-methyl-thiazol-5-yl]-2-methoxy-benzenesulfonamide]	100 to 1000
COc1ccc(-c2sc(NC(C)C)nc2C)cc1S(=O)(=O)N[C@H]1CC[C@H](O)CC1 [Compound S-215, N-(4-hydroxycyclohexyl)-5-[2-(isopropylamino)-4-methyl-thiazol-5-yl]-2-methoxy-benzenesulfonamide]	< 100
COc1ncc(-c2sc(NC(=O)CC3CCOCC3)nc2C)cc1S(=O)(=O)Nc1ccc(F)cc1F [Compound S-260]	< 100
COc1ccc(-c2sc(N[C@@H](C)C3CCCCC3)nc2C)cc1S(=O)(=O)N[C@H]1CC[C@@H](O)CC1 [Compound S-206, 5-[2-[[(1S)-1-cyclohexylethyl]amino]-4-methyl-thiazol-5-yl]-N-(4-hydroxycyclohexyl)-2-methoxy-benzenesulfonamide]	1000 to 10000
COc1ccc(-c2sc(NC3CCCCC3)nc2C)cc1S(=O)(=O)NC1CCCC1 [Compound S-129, 5-[2-(cyclohexylamino)-4-methyl-thiazol-5-yl]-N-cyclopentyl-2-methoxy-benzenesulfonamide]	100 to 1000
COc1ccc(-c2sc(NCCC3CCCCC3)nc2C)cc1S(=O)(=O)NC1CCNCC1 [Compound S-202, 5-[2-(2-cyclohexylethylamino)-4-methyl-thiazol-5-yl]-2-methoxy-N-(4-piperidyl)benzenesulfonamide]	< 100
Cc1ccc(-c2sc(NC(=O)CC3CCCC3)nc2C)cc1S(=O)(=O)NC1CCNCC1 [Compound S-188, 2-cyclopentyl-N-[4-methyl-5-[4-methyl-3-(4-piperidylsulfamoyl)phenyl]thiazol-2-yl]acetamide]	< 100
COc1ccc(-c2sc(NCC3CCCCC3)nc2C)cc1S(=O)(=O)NC1CCN(C2CCCC2)CC1 [Compound S-133, 5-[2-(cyclohexylmethylamino)-4-methyl-thiazol-5-yl]-N-(1-cyclopentyl-4-piperidyl)-2-methoxy-benzenesulfonamide]	< 100
COc1ccc(-c2sc(NC3CCCCC3)nc2C)cc1S(=O)(=O)N[C@H]1CC[C@H](O)CC1 [Compound S-166, 5-[2-(cyclohexylamino)-4-methyl-thiazol-5-yl]-N-(4-hydroxycyclohexyl)-2-methoxy-benzenesulfonamide]	< 100
